Assay results: ChEMBL document CHEMBL1201862, “PubChem BioAssay data set” (2004)
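Dose response: 5 concentrations. Exposure: 48 h. Format: 96-well plates. Endpoint: linear interpolation; highest concentration if not reached. GI50 marks 50% less growth.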 Active and inactive are the calls of the source. Rule as the data show it: active = GI50 up to about 1.1 µM and inactive = higher.

Legend:
Test in all cases: inhibition of tumour cell growth, NCI panel, 48 h
HCT-15 = system: HCT-15
HOP-92 = system: HOP-92
SNB-19 = system: SNB-19
MDA-MB-435 = system: MDA-MB-435
SF-295 = system: SF-295
NCI-H522 = system: NCI-H522
HT-29 = system: HT-29
NCI-H23 = system: NCI-H23
NCI-H460 = system: NCI-H460
HL-60 = system: HL-60
MDA-N = system: MDA-N
SNB-75 = system: SNB-75
KM12 = system: KM12
UO-31 = system: UO-31
SK-MEL-5 = system: SK-MEL-5
CAKI-1 = system: CAKI-1
786-0 = system: 786-0
TK-10 = system: TK-10
COLO 205 = system: COLO 205
NCI-H226 = system: NCI-H226

| Structure (SMILES) | GI50 (HCT-15) [µM] | GI50 (HOP-92) | GI50 (SNB-19) | GI50 (MDA-MB-435) | GI50 (SF-295) | GI50 (NCI-H522) | GI50 (HT-29) | GI50 (NCI-H23) | GI50 (NCI-H460) | GI50 (HL-60) | GI50 (MDA-N) | GI50 (SNB-75) | GI50 (KM12) | GI50 (UO-31) | GI50 (SK-MEL-5) | GI50 (CAKI-1) | GI50 (786-0) | GI50 (TK-10) | GI50 (COLO 205) | GI50 (NCI-H226) |
| --- | --- | --- | --- | --- | --- | --- | --- | --- | --- | --- | --- | --- | --- | --- | --- | --- | --- | --- | --- | --- |
| COC(=O)NCCc1n[nH]c2c1C(=O)C=C(N1CCOCC1)C2=O | > 100 | > 100 µM (inactive) | > 100 µM (inactive) | > 100 µM (inactive) | > 100 µM (inactive) | > 100 µM (inactive) | > 100 µM (inactive) | > 100 µM (inactive) | > 100 µM (inactive) | > 100 µM (inactive) | > 100 µM (inactive) | > 100 µM (inactive) | > 100 µM (inactive) | > 100 µM (inactive) | > 100 µM (inactive) | > 100 µM (inactive) | > 100 µM (inactive) | > 100 µM (inactive) | > 100 µM (inactive) | > 100 µM (inactive) |
| Cc1ccc2nc3c(C)c(Cl)c(=O)cc-3sc2c1 | 10.6 | 34.4 µM (inactive) | 24 µM (inactive) | 18.5 µM (inactive) | 23.3 µM (inactive) | 11.1 µM (inactive) | 60.5 µM (inactive) | 13.2 µM (inactive) | 23.1 µM (inactive) | 2.59 µM (inactive) | 16.9 µM (inactive) | 14.5 µM (inactive) | 23.1 µM (inactive) | 10.2 µM (inactive) | 13.6 µM (inactive) | 28.2 µM (inactive) | 49.7 µM (inactive) | 56.8 µM (inactive) | 29.9 µM (inactive) | 5.06 µM (inactive) |
